In patent US20220015371A1, “Compositions and Methods for Reducing Pesticide-Induced Plant Damage and Improving Plant Yield” (priority 2018, published 2022):

Key:
[1] = test system: rice plants; assay: Example 6: rice plants stressed by foliar profoxydim, field trial; assay type: in vivo; settings: profoxydim 750 ml/ha, three days after application (FIG. 14A)
Procedure: To test the effect of foliar application of inventive fermentation culture lysate composition(s) on rice plants stressed by foliar application of the chemical herbicide profoxydim, field trial(s) were conducted. Control fields (FIG. 13, A; FIG. 14A) were treated with herbicide formulation comprising profoxydim (foliar application at 750 ml/ha). Test fields were treated with either (FIG. 13, B; FIG. 14B) a combination of (i) herbicide formulation comprising profoxydim (foliar application at 750 ml/ha) and (ii) fermentation culture lysate Composition B (foliar application at 500 ml/ha) or (FIG. 13, C; FIG. 14C) a combination of (i) herbicide formulation comprising profoxydim (foliar application at 750 ml/ha), (ii) fermentation culture lysate Composition B (foliar application at 500 ml/ha), and (iii) fermentation culture lysate Composition F (foliar application at 500 ml/ha).

[2] = test system: rice seedlings; assay: Example 2: rice seedlings stressed by post-emergence halosulfuron, field trial; assay type: in vivo; settings: halosulfuron post-emergence 1800 ml/ha, Composition E seed treatment 150 ml/100 kg seed where applied (FIGS. 7A, 7B)
Procedure: To test the effect of seed application of an inventive fermentation culture lysate composition on rice seedlings stressed by post-emergence application of the chemical herbicide halosulfuron, various field trial(s) were conducted. Control fields (FIGS. 6A, 7A) were treated with herbicide formulation comprising halosulfuron (post-emergence at 1800 ml/ha). Test fields (FIGS. 6B, 7B) included seedling treated with the herbicide formulation comprising halosulfuron (post-emergence at 1800 ml/ha) from seeds treated with fermentation culture lysate Composition E (seed treatment at 150 ml/100 kg seed) during planting.

[3] = test system: carpet weed; assay: Weed control in rice field trial: carpet weed; assay type: in vivo; settings: visually rated 8 May
Source text: (§1) To further evaluate the performance of certain embodiments of the present disclosure, bacterial fermentation product of the present disclosure was applied in a common herbicide application program to test herbicide injury tolerance, weed control, grain yield and milling quality in rice. Experiments were established in a field of Crowley fine sandy loam soil (59% sand, […], 12% clay, 0.7% organic matter and pH 5.3). The field was cropped to rice for every third year for many years and was naturally infested with many weeds. Plots consisted of six 18-ft rows, spaced 7.5-in. between rows. The experiment was conducted as a randomized completed block design with four replications. The trial consisted of six treatments (see Table 12, below).
(§2) Rice of the variety Presidio was drill seeded at 70 lb/acre on 5 Apr. Seeds for treatments 2, 4, 5 and 6 were treated with Composition E at 2.3 oz product/CWT prior to planting. Compositions A and B were applied at 7 oz product/acre on 1 May (postemergence), 2 Jun (panicle differentiation, PD) and 19 Jun (boot), using a CO2 pressurized, hand-held sprayer equipped with a boom of three TeeJet 8002VS nozzles spaced 19-in. apart that traveled at 3 mph and delivered at 29 gal/acre at 40 psi. […]

[4] = test system: yellow nutsedge; assay: Weed control in rice field trial: yellow nutsedge; assay type: in vivo; settings: visually rated 8 May
Source text: as §1, §2

[5] = test system: broadleaf signalgrass; assay: Weed control in rice field trial: broadleaf signalgrass; assay type: in vivo; settings: visually rated 8 May
Source text: as §1, §2

[6] = test system: rice of the variety Presidio; assay: Rice crop injury in herbicide application program, field trial; settings: visually rated 8 May, 0 = no injury, 100 = complete plant death
Source text: as §1, §2

[7] = test system: glyphosate-tolerant Palmer Amaranth; assay: Palmer Amaranth shoot and root weight, greenhouse conditions; assay type: in vivo, Amaranthus palmeri; settings: two weeks after spraying
Source text: To test the effects of the inventive plant treatment product on weed survival in herbicide-tolerant Palmer Amaranth (Amaranthus palmeri) plants, the plant treatment product (Composition C+herbicide) or herbicide component (alone) were applied to weeds, in greenhouse conditions. […] The measurements of dry shoot mass and dry root mass were taken two weeks after spraying.

[8] = test system: rice plants; assay: Example 5: rice plants stressed by foliar cyhalofop, field trial; assay type: in vivo; settings: cyhalofop 1500 ml/ha, three days after application (FIG. 12A)
Procedure: (§3) To test the effect of foliar application of an inventive fermentation culture lysate composition on rice plants stressed by foliar application of the chemical herbicide cyhalofop, field trial(s) were conducted. Control fields (FIG. 11, A; FIG. 12A) were treated with herbicide formulation comprising cyhalofop (foliar application at 1500 ml/ha). Test fields (FIG. 11, B; FIG. 12B) were treated with a combination of the herbicide formulation comprising cyhalofop (foliar application at 1500 ml/ha) and fermentation culture lysate Composition B (foliar application at 500 ml/ha).

[9] = test system: rice plants; assay: Example 3: rice plants stressed by foliar propanil, field trial; assay type: in vivo; settings: propanil 4000 ml/ha, three days after application (FIG. 9A)
Procedure: as §3, with “propanil,” for “cyhalofop,”, “8,” for “11,”, “9A)” for “12A)”, “propanil” for “cyhalofop”, “4000” for “1500”, “9B)” for “12B)”

[10] = glyphosate 1.27 kg/ha, Composition C 1 liter/ha

CCCC(=NOCC(C)Oc1ccc(Cl)cc1)C1=C(O)CC(C2CCCSC2)CC1=O (stereo not shown) [profoxydim]
phytotoxicity symptoms [1]: showed phytotoxicity symptoms

COc1cc(OC)nc(NC(=O)NS(=O)(=O)c2c(C(=O)O)c(Cl)nn2C)n1 [halosulfuron]
bleaching of rice seedlings [2]: caused bleaching

CC1(C)CON(Cc2ccccc2Cl)C1=O [clomazone PRE, clomazone]
Weed Control (%) Carpet weed [3]: 0 c %
Weed Control (%) Yellow nutsedge [4]: 0 b %
Weed Control (%) Broadleaf signalgrass [5]: 90 b %
Crop injury (%) [6]: 5.0 d^y %

O=C(O)CNCP(=O)(O)O [Herbicide, glyphosate]
Palmer Amaranth root dry weight per plant [7, 10]: 0.768
Palmer Amaranth root fresh weight per plant [7, 10]: 4.70
Palmer Amaranth shoot dry weight per plant [7, 10]: 5.31
Palmer Amaranth shoot fresh weight per plant [7, 10]: 15.0
Palmer Amaranth root dry weight, change vs Untreated Control [7]: −40.9%
Palmer Amaranth root fresh weight, change vs Untreated Control [7]: −51.3%
Palmer Amaranth shoot dry weight, change vs Untreated Control [7]: −7.01%
Palmer Amaranth shoot fresh weight, change vs Untreated Control [7]: −20.6%

C[C@@H](Oc1ccc(Oc2ccc(C#N)cc2F)cc1)C(=O)O [cyhalofop]
phytotoxicity symptoms [8]: showed phytotoxicity symptoms

CCC(=O)Nc1ccc(Cl)c(Cl)c1 [propanil]
phytotoxicity symptoms [9]: showed phytotoxicity symptoms
